Assay results: paper PMC7345083, “Vancomycin-Lipopeptide Conjugates with High Antimicrobial Activity on Vancomycin-Resistant Enterococci” (Pharmaceuticals, 2020)
In brackets after ≈: the same amount, converted by molar mass.

Columns and labels:
[1] = test system: E. faecium ATCC 51559 (vanA); assay type: cell-based, Enterococcus faecium; settings: ATCC 51559, 18 h
Description: (§1) The minimum inhibitory concentration (MIC) was determined by microdilution following the EUCAST and CLSI guidelines via the broth microdilution assay on a 96-well plate. Substances were dissolved in saline solution (0.9%) at a concentration equimolar to 1.28 mg/mL vancomycin. With an increasing hydrophobicity, some substances had to be pre-dissolved in DMSO. The final concentration of DMSO remained below 1.5% and was compared to the DMSO control (no antimicrobial effect was observed up to the highest concentration tested (10%)). All substances were serially diluted on the 96-well plate using Mueller-Hinton-Broth II (cation adjusted). Vancomycin was always used as a control. For bacterial loading, an overnight culture of the referring strain was taken and adjusted to a turbidity corresponding to 10^8 cfu/mL. The bacterial suspension was further diluted to load a bacterial number of 10^6 cfu/mL on the 96-well plate and incubate it for 18 h at 35 ± 1 °C, as described before. MIC was defined as the lowest concentration without visible growth.

[2] = test system: Enterococcus casseliflavus ATCC 700327 (vanC); assay type: cell-based; settings: ATCC 700327, 18 h
Description: as §1

[3] = test system: Enterococcus faecium UL602570 (vanA, clinical isolate); assay type: cell-based; settings: UL602570 (vanA, clinical isolate, 18 h)
Description: as §1

[4] = test system: E. faecalis ATCC 51299 (vanB); assay type: cell-based, Enterococcus faecalis; settings: ATCC 51299, 18 h
Description: as §1

| Structure (SMILES) | MIC median [1] | MIC range [1] | MIC median [2] | MIC range [2] | MIC median [3] | MIC range [3] | MIC median [4] |
| --- | --- | --- | --- | --- | --- | --- | --- |
| CCCCCCCCCCCC(=O)N[C@@H](CCCNC(=N)N)C(=O)N[C@@H](CCCNC(=N)N)C(=O)N[C@@H](CCCNC(=N)N)C(=O)N[C@@H](CSC1CC(=O)N(CC2CCC(C(=O)NCCNC(=O)[C@H]3NC(=O)[C@H]4NC(=O)[C@H](NC(=O)[C@@H]5NC(=O)[C@H](CC(N)=O)NC(=O)[C@H](NC(=O)[C@@H](CC(C)C)NC)[C@H](O)c6ccc(c(Cl)c6)Oc6cc5cc(c6O[C@@H]5O[C@H](CO)[C@@H](O)[C@H](O)[C@H]5O[C@H]5C[C@](C)(N)[C@H](O)[C@H](C)O5)Oc5ccc(cc5Cl)[C@H]4O)c4ccc(O)c(c4)-c4c(O)cc(O)cc43)CC2)C1=O)C(N)=O (stereo partly drawn) [VC-R3C-C12] | 4.84 µg/mL (≈ 1.95 µM) | 4.84 to 9.69 µg/mL | 4 µg/mL (≈ 1.61 µM) | 1 to 4 µg/mL | 4.84 µg/mL (≈ 1.95 µM) | 2.42 to 4.84 µg/mL | 4 µg/mL (≈ 1.61 µM) |
| CCCCCCCCCCCC(=O)N[C@@H](CCCNC(=N)N)C(=O)N[C@@H](CCCNC(=N)N)C(=O)N[C@@H](CCCNC(=N)N)C(=O)N[C@H](Cc1ccc(O)cc1)C(=O)N[C@@H](CSC1CC(=O)N(CC2CCC(C(=O)NCCN[C@@]3(C)C[C@H](O[C@H]4[C@H](Oc5c6cc7cc5Oc5ccc(cc5Cl)[C@@H](O)[C@@H](NC(=O)[C@@H](CC(C)C)NC)C(=O)N[C@@H](CC(N)=O)C(=O)N[C@H]7C(=O)N[C@H]5C(=O)N[C@H](C(=O)N[C@H](C(=O)O)c7cc(O)cc(O)c7-c7cc5ccc7O)[C@H](O)c5ccc(c(Cl)c5)O6)O[C@H](CO)[C@@H](O)[C@@H]4O)O[C@@H](C)[C@H]3O)CC2)C1=O)C(N)=O (stereo partly drawn) [VV-R3yC-C12] | – | – | – | – | 1.02 µg/mL (≈ 0.386 µM) | 0.25 to 2.03 µg/mL | – |
| CCCCCCCCCCCCCCCC(=O)N[C@@H](CCCNC(=N)N)C(=O)N[C@@H](CCCNC(=N)N)C(=O)N[C@@H](CCCNC(=N)N)C(=O)N[C@@H](CSC1CC(=O)N(CC2CCC(C(=O)NCCNC(=O)[C@H]3NC(=O)[C@H]4NC(=O)[C@H](NC(=O)[C@@H]5NC(=O)[C@H](CC(N)=O)NC(=O)[C@H](NC(=O)[C@@H](CC(C)C)NC)[C@H](O)c6ccc(c(Cl)c6)Oc6cc5cc(c6O[C@@H]5O[C@H](CO)[C@@H](O)[C@H](O)[C@H]5O[C@H]5C[C@](C)(N)[C@H](O)[C@H](C)O5)Oc5ccc(cc5Cl)[C@H]4O)c4ccc(O)c(c4)-c4c(O)cc(O)cc43)CC2)C1=O)C(N)=O (stereo partly drawn) [VC-R3C-C16] | – | – | – | – | 5.00 µg/mL (≈ 1.97 µM) | 5.00 to 10.00 µg/mL | – |
| CCCCCCCCCCCCCCCCCC(=O)N[C@@H](CCCNC(=N)N)C(=O)N[C@@H](CCCNC(=N)N)C(=O)N[C@@H](CCCNC(=N)N)C(=O)N[C@@H](CSC1CC(=O)N(CC2CCC(C(=O)NCCN[C@@]3(C)C[C@H](O[C@H]4[C@H](Oc5c6cc7cc5Oc5ccc(cc5Cl)[C@@H](O)[C@@H](NC(=O)[C@@H](CC(C)C)NC)C(=O)N[C@@H](CC(N)=O)C(=O)N[C@H]7C(=O)N[C@H]5C(=O)N[C@H](C(=O)N[C@H](C(=O)O)c7cc(O)cc(O)c7-c7cc5ccc7O)[C@H](O)c5ccc(c(Cl)c5)O6)O[C@H](CO)[C@@H](O)[C@@H]4O)O[C@@H](C)[C@H]3O)CC2)C1=O)C(N)=O (stereo partly drawn) [VV-R3C-C18] | – | – | – | – | 2.54 µg/mL (≈ 0.99 µM) | 1.27 to 2.54 µg/mL | – |
| CCCCCCCCCCCCCCCCCC(=O)N[C@@H](CCCNC(=N)N)C(=O)N[C@@H](CCCNC(=N)N)C(=O)N[C@@H](CCCNC(=N)N)C(=O)N[C@@H](CSC1CC(=O)N(CC2CCC(C(=O)NCCNC(=O)[C@H]3NC(=O)[C@H]4NC(=O)[C@H](NC(=O)[C@@H]5NC(=O)[C@H](CC(N)=O)NC(=O)[C@H](NC(=O)[C@@H](CC(C)C)NC)[C@H](O)c6ccc(c(Cl)c6)Oc6cc5cc(c6O[C@@H]5O[C@H](CO)[C@@H](O)[C@H](O)[C@H]5O[C@H]5C[C@](C)(N)[C@H](O)[C@H](C)O5)Oc5ccc(cc5Cl)[C@H]4O)c4ccc(O)c(c4)-c4c(O)cc(O)cc43)CC2)C1=O)C(N)=O (stereo partly drawn) [VC-R3C-C18] | – | – | – | – | 10.17 µg/mL (≈ 3.96 µM) | 5.08 to 10.17 µg/mL | – |
| CCCCCCCCCCCCCCCC(=O)N[C@@H](CCCNC(=N)N)C(=O)N[C@@H](CCCNC(=N)N)C(=O)N[C@@H](CCCNC(=N)N)C(=O)N[C@@H](CSC1CC(=O)N(CC2CCC(C(=O)N(C)[C@H](CC(C)C)C(=O)N[C@H]3C(=O)N[C@@H](CC(N)=O)C(=O)N[C@H]4C(=O)N[C@H]5C(=O)N[C@H](C(=O)N[C@H](C(=O)O)c6cc(O)cc(O)c6-c6cc5ccc6O)[C@H](O)c5ccc(c(Cl)c5)Oc5cc4cc(c5O[C@@H]4O[C@H](CO)[C@@H](O)[C@H](O)[C@H]4O[C@H]4C[C@](C)(N)[C@H](O)[C@H](C)O4)Oc4ccc(cc4Cl)[C@H]3O)CC2)C1=O)C(N)=O (stereo partly drawn) [VN-R3C-C16] | – | – | – | – | 2.45 µg/mL (≈ 0.982 µM) | 2.45 to 4.89 µg/mL | – |
| CCCCCCCC(=O)N[C@@H](CCCNC(=N)N)C(=O)N[C@@H](CCCNC(=N)N)C(=O)N[C@@H](CCCNC(=N)N)C(=O)N[C@@H](CSC1CC(=O)N(CC2CCC(C(=O)NCCN[C@@]3(C)C[C@H](O[C@H]4[C@H](Oc5c6cc7cc5Oc5ccc(cc5Cl)[C@@H](O)[C@@H](NC(=O)[C@@H](CC(C)C)NC)C(=O)N[C@@H](CC(N)=O)C(=O)N[C@H]7C(=O)N[C@H]5C(=O)N[C@H](C(=O)N[C@H](C(=O)O)c7cc(O)cc(O)c7-c7cc5ccc7O)[C@H](O)c5ccc(c(Cl)c5)O6)O[C@H](CO)[C@@H](O)[C@@H]4O)O[C@@H](C)[C@H]3O)CC2)C1=O)C(N)=O (stereo partly drawn) [VV-R3C-C8] | – | – | – | – | 1.49 µg/mL (≈ 0.614 µM) | 0.30 to 2.39 µg/mL | – |
| CCCCCCCCCC(=O)N[C@@H](CCCNC(=N)N)C(=O)N[C@@H](CCCNC(=N)N)C(=O)N[C@@H](CCCNC(=N)N)C(=O)N[C@@H](CSC1CC(=O)N(CC2CCC(C(=O)NCCN[C@@]3(C)C[C@H](O[C@H]4[C@H](Oc5c6cc7cc5Oc5ccc(cc5Cl)[C@@H](O)[C@@H](NC(=O)[C@@H](CC(C)C)NC)C(=O)N[C@@H](CC(N)=O)C(=O)N[C@H]7C(=O)N[C@H]5C(=O)N[C@H](C(=O)N[C@H](C(=O)O)c7cc(O)cc(O)c7-c7cc5ccc7O)[C@H](O)c5ccc(c(Cl)c5)O6)O[C@H](CO)[C@@H](O)[C@@H]4O)O[C@@H](C)[C@H]3O)CC2)C1=O)C(N)=O (stereo partly drawn) [VV-R3C-C10] | – | – | – | – | 0.63 µg/mL (≈ 0.257 µM) | 0.05 to 0.84 µg/mL | – |
| CCCCCCCCCCCC(=O)N[C@@H](CCCNC(=N)N)C(=O)N[C@@H](CCCNC(=N)N)C(=O)N[C@@H](CCCNC(=N)N)C(=O)N[C@@H](CSC1CC(=O)N(CC2CCC(C(=O)N(C)[C@H](CC(C)C)C(=O)N[C@H]3C(=O)N[C@@H](CC(N)=O)C(=O)N[C@H]4C(=O)N[C@H]5C(=O)N[C@H](C(=O)N[C@H](C(=O)O)c6cc(O)cc(O)c6-c6cc5ccc6O)[C@H](O)c5ccc(c(Cl)c5)Oc5cc4cc(c5O[C@@H]4O[C@H](CO)[C@@H](O)[C@H](O)[C@H]4O[C@H]4C[C@](C)(N)[C@H](O)[C@H](C)O4)Oc4ccc(cc4Cl)[C@H]3O)CC2)C1=O)C(N)=O (stereo partly drawn) [VN-R3C-C12] | 4.72 µg/mL (≈ 1.93 µM) | 4.72 to 9.44 µg/mL | 2.5 µg/mL (≈ 1.02 µM) | 1 to 4 µg/mL | 2.37 µg/mL (≈ 0.971 µM) | 2.37 to 4.73 µg/mL | 4 µg/mL (≈ 1.64 µM) |
| CCCCCCCCCC(=O)N[C@@H](CCCNC(=N)N)C(=O)N[C@@H](CCCNC(=N)N)C(=O)N[C@@H](CCCNC(=N)N)C(=O)N[C@@H](CSC1CC(=O)N(CC2CCC(C(=O)N(C)[C@H](CC(C)C)C(=O)N[C@H]3C(=O)N[C@@H](CC(N)=O)C(=O)N[C@H]4C(=O)N[C@H]5C(=O)N[C@H](C(=O)N[C@H](C(=O)O)c6cc(O)cc(O)c6-c6cc5ccc6O)[C@H](O)c5ccc(c(Cl)c5)Oc5cc4cc(c5O[C@@H]4O[C@H](CO)[C@@H](O)[C@H](O)[C@H]4O[C@H]4C[C@](C)(N)[C@H](O)[C@H](C)O4)Oc4ccc(cc4Cl)[C@H]3O)CC2)C1=O)C(N)=O (stereo partly drawn) [VN-R3C-C10] | – | – | – | – | 4.66 µg/mL (≈ 1.93 µM) | 4.66 to 9.31 µg/mL | – |
| CCCCCCCCCCCC(=O)N[C@@H](CCCNC(=N)N)C(=O)N[C@@H](CCCNC(=N)N)C(=O)N[C@@H](CCCNC(=N)N)C(=O)N[C@@H](CSC1CC(=O)N(CC2CCC(C(=O)NCCN[C@@]3(C)C[C@H](O[C@H]4[C@H](Oc5c6cc7cc5Oc5ccc(cc5Cl)[C@@H](O)[C@@H](NC(=O)[C@@H](CC(C)C)NC)C(=O)N[C@@H](CC(N)=O)C(=O)N[C@H]7C(=O)N[C@H]5C(=O)N[C@H](C(=O)N[C@H](C(=O)O)c7cc(O)cc(O)c7-c7cc5ccc7O)[C@H](O)c5ccc(c(Cl)c5)O6)O[C@H](CO)[C@@H](O)[C@@H]4O)O[C@@H](C)[C@H]3O)CC2)C1=O)C(N)=O (stereo partly drawn) [VV-R3C-C12] | 3.88 µg/mL (≈ 1.56 µM) | 3.88 to 7.75 µg/mL | 2.5 µg/mL (≈ 1.01 µM) | 0.5 to 4 µg/mL | 0.24 µg/mL (≈ 0.0967 µM) | 0.06 to 0.48 µg/mL | 4 µg/mL (≈ 1.61 µM) |
| CN[C@H](CC(C)C)C(=O)N[C@H]1C(=O)N[C@@H](CC(N)=O)C(=O)N[C@H]2C(=O)N[C@H]3C(=O)N[C@H](C(=O)N[C@H](C(=O)NCCNC(=O)C4CCC(CN5C(=O)CC(SC[C@H](NC(=O)[C@H](CCCNC(=N)N)NC(=O)[C@H](CCCNC(=N)N)NC(=O)[C@@H](N)CCCNC(=N)N)C(N)=O)C5=O)CC4)c4cc(O)cc(O)c4-c4cc3ccc4O)[C@H](O)c3ccc(c(Cl)c3)Oc3cc2cc(c3O[C@@H]2O[C@H](CO)[C@@H](O)[C@H](O)[C@H]2O[C@H]2C[C@](C)(N)[C@H](O)[C@H](C)O2)Oc2ccc(cc2Cl)[C@H]1O (stereo partly drawn) [VC-R3C] | – | – | – | – | 34.75 µg/mL (≈ 15.1 µM) | 17.38 to 34.75 µg/mL | – |
